In patent US20130345182A1, “STABLE COMPOSITION COMPRISING CHOLESTEROL-LOWERING AGENTS, […] AGENTS AND […] AGENTS” (Silanes Laboratories, priority 2010, published 2013):

Key:
[1] = Determination of drugs content stability under extreme storage conditions; type: physicochemical
Description: The compositions from Example 1 were subjected to extreme storage conditions.
These conditions were maintained for a month, as follows: temperature 40° C. and 75% relative humidity (RH) and at temperature of 60° C. and 85% RH.
Then, the determination of the contents of each of the drugs was performed.

[2] = Dissolution profile of tablets; type: physicochemical
Source text: Assessment of the composition of the present invention formulated into tablets was made, as described in Example 1 to determine their dissolution profiles, according to methods widely known in the industry, in order to evaluate the release of drugs.

Long-term stability test = type: physicochemical
Description: The compositions of the present invention can be formulated into tablets which are packed in Aluminum-Aluminum blisters and subjected to stability studies according to ICH international guidelines (International Conference of Harmonization, Guideline for Industry, Stability Testing of New Drug Substances and Products. ICH Q1A (R2) February 2003).
Long-term stability studies were conducted on a batch from the composition of the present invention manufactured in accordance with that described in Example 1 but with the addition of coloring agent; these studies were conducted in selected conditions of temperature and humidity, which were 30° C. and 75% RH, and a temperature of 25° C. and 60% RH, showing that the pharmaceutical composition is stable according to the results exemplified in Table 3 up to 9 months, although the study was conducted under the regulatory guidelines for a longer period.

[3] = patients with type 2 diabetes mellitus and proteinuria; cited from earlier work
clinical = details: human
[4] = cited from earlier work
[5] = 0 months, 30° C./75% RH or 25° C./60% RH (not said which)

Row | SMILES | Drug content ([1]; 1 Month 40° C./75% RH) [%] | Drug content ([1]; 1 Month 60° C./85% RH) [%] | Drug content ([1]; Initial) [%] | Average of % dissolved ([2]; 10 minutes) [%] | Average of % dissolved ([2]; 20 minutes) [%] | Average of % dissolved ([2]; 30 minutes) [%] | Average of % dissolved ([2]; 40 minutes) [%] | Average of % dissolved ([2]; 50 minutes) [%] | Average of % dissolved ([2]; 60 minutes) [%] | Dissolution (Long-term stability test; 0 months) [%] | Content (Long-term stability test; [5]) [%] | Content (Long-term stability test; 1 month) [%] | Dissolution (Long-term stability test; 1 month) [%] | Content (Long-term stability test; 3 months) [%] | Dissolution (Long-term stability test; 3 months) [%] | Content (Long-term stability test; 6 months) [%] | Dissolution (Long-term stability test; 6 months) [%] | Content (Long-term stability test; 9 months) [%] | Dissolution (Long-term stability test; 9 months) [%] | concentration at 0 h (clinical; in vivo) [ng/mL] | also measured
1 | CC(=O)Oc1ccccc1C(=O)O [Acetylsalicylic acid, acetylsalicylic acid] | 96.45 | 96.05 | 94.63 | 12 | 34 | 56 | 73 | 84 | 88 | 88.75 | 98.70 | 101.00 | 78.38 | 98.54 | 83.57 | 98.67 | 87.60 | 95.14 | 81.66 | – | –
2 | CCCCc1nc(Cl)c(CO)n1Cc1ccc(-c2ccccc2-c2nn[nH]n2)cc1 [Losartan potassium, losartan potassium] | 96.31 | 96.64 | 95.88 | 60 | 100 | 102 | 102 | 103 | 104 | 103.01 | 100.32 | 99.24 | 95.28 | 98.50 | 96.38 | 99.85 | 92.77 | 95.33 | 91.66 | 0 | Progression of renal disease [3]: delays the progression of renal disease; concentration at 0.17 h (clinical; in vivo): 39.7 ng/mL; concentration at 0.33 h (clinical; in vivo): 137 ng/mL; concentration at 0.5 h (clinical; in vivo): 191 ng/mL; concentration at 0.75 h (clinical; in vivo): 176 ng/mL; concentration at 1 h (clinical; in vivo): 140 ng/mL; concentration at 2 h (clinical; in vivo): 113 ng/mL; concentration at 2.5 h (clinical; in vivo): 96.3 ng/mL; concentration at 3 h (clinical; in vivo): 81.5 ng/mL; concentration at 4 h (clinical; in vivo): 57.5 ng/mL; concentration at 6 h (clinical; in vivo): 38.7 ng/mL; concentration at 7 h (clinical; in vivo): 21.8 ng/mL; concentration at 8 h (clinical; in vivo): 12.4 ng/mL; concentration at 10 h (clinical; in vivo): 6.01 ng/mL; concentration at 12 h (clinical; in vivo): 3.06 ng/mL
3 | CC[C@H](C)C(=O)O[C@H]1C[C@H](O)C=C2C=C[C@H](C)[C@H](CC[C@@H](O)C[C@@H](O)CC(=O)O)[C@H]21 [Pravastatin sodium, pravastatin sodium] | 98.72 | 98.23 | 99.76 | 61 | 104 | 105 | 106 | 107 | 108 | 99.79 | 98.89 | 98.04 | 94.77 | 95.83 | 98.09 | 98.77 | 95.97 | 99.97 | 93.37 | 0 | Incidence of type 2 diabetes mellitus, lower than in placebo group ([4]; patients administered pravastatin vs placebo): 30%; Reduction of incidence of cerebral thrombosis ([4]; patients): ≤ 20%; concentration at 0.17 h (clinical; in vivo): 2.8 ng/mL; concentration at 0.33 h (clinical; in vivo): 24.9 ng/mL; concentration at 0.5 h (clinical; in vivo): 72.6 ng/mL; concentration at 0.75 h (clinical; in vivo): 113 ng/mL; concentration at 1 h (clinical; in vivo): 110 ng/mL; concentration at 2 h (clinical; in vivo): 77 ng/mL; concentration at 2.5 h (clinical; in vivo): 58 ng/mL; concentration at 3 h (clinical; in vivo): 42.5 ng/mL; concentration at 4 h (clinical; in vivo): 25.8 ng/mL; concentration at 6 h (clinical; in vivo): 16.2 ng/mL; concentration at 7 h (clinical; in vivo): 9.73 ng/mL; concentration at 8 h (clinical; in vivo): 13.3 ng/mL; concentration at 10 h (clinical; in vivo): 6.53 ng/mL; concentration at 12 h (clinical; in vivo): 1.71 ng/mL; concentration at 24 h (clinical; in vivo): 1.27 ng/mL
4 | O=C(O)c1ccccc1O [Salicylic acid] | – | – | – | – | – | – | – | – | – | – | – | – | – | – | – | – | – | – | – | – | concentration at 0 h (clinical; plasma, oral): 0 ng/mL; concentration at 0.17 h (clinical; plasma, oral): 1.09 ng/mL; concentration at 0.33 h (clinical; plasma, oral): 3.97 ng/mL; concentration at 0.5 h (clinical; plasma, oral): 8.78 ng/mL; concentration at 0.75 h (clinical; plasma, oral): 14.8 ng/mL; concentration at 1 h (clinical; plasma, oral): 21.1 ng/mL; concentration at 2 h (clinical; plasma, oral): 28.8 ng/mL; concentration at 2.5 h (clinical; plasma, oral): 36.5 ng/mL; concentration at 3 h (clinical; plasma, oral): 43.3 ng/mL; concentration at 4 h (clinical; plasma, oral): 49.2 ng/mL; concentration at 6 h (clinical; plasma, oral): 50.2 ng/mL; concentration at 7 h (clinical; plasma, oral): 45.4 ng/mL; concentration at 8 h (clinical; plasma, oral): 25.1 ng/mL; concentration at 10 h (clinical; plasma, oral): 12.5 ng/mL; concentration at 12 h (clinical; plasma, oral): 4.21 ng/mL; concentration at 24 h (clinical; plasma, oral): 1.16 ng/mL
